Measurements taken from ChEMBL document CHEMBL5728846, “6H-thieno[2,3-e][1,2,4]triazolo[3,4-c][1,2,4]triazepine derivative” (2021).

Assay: NF-keppaB Inhibitory Activity Evaluation Test: A549/NF-κB-luc cells (available from Panomics, Cat No. LR0051) were prepared at 375,000 cells/mL in the culture medium. The 375,000 cells/mL A549/NF-κB-luc cell suspension was seeded at 80 μL each on a white 96-well plate (available from Greiner, Cat No. 655073). One hour after seeding the cells, 10 μL of 2% DMSO solution (control) and each compound solution in each concentration were added to each well of the 96-well plate. One hour after the addition of each compound solution, 10 ng/mL of the TNF-α solution (10 μL) was added to each well of the 96-well plate. Three hours after the addition of 10 ng/mL of the TNF-α solution, 100 μL of Steady-Glo reagent (available from Promega, Cat No. E2510) was added to each well of the 96-well plate. After 30 to 90 minutes of the addition of the Steady-Glo reagent, the luminescence intensity of each well was detected by EnVision multilabel counter (available from PerkinElmer).

Cc1sc2c(c1C)C(c1ccc(Cl)cc1)=NN(Cc1cccc(F)n1)c1nnc(C)n1-2
IC50: 33.6 nM
